# Results from ChEMBL document CHEMBL1201862, “PubChem BioAssay data set” (2004).
# Active and inactive are the calls of the source.
# Key:
# [1] = viability loss of HMLE_sh_eGFP cells – cell-based, luminescence, counter-screen for HMLE_sh_ECad selective toxicity project, dose response (AID 463074); assay type: functional, Homo sapiens;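 note: HMLE human mammary epithelial cells expressing control shRNA against eGFP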
# [2] = Luminescence Cell-Based Dose Retest to Confirm Inhibitors of Cancer Stem Cells. [Related pubchem assays (depositor defined):AID2717, AID2721]; assay type: functional; conditions: Homo sapiens
# [3] = target: T1, High affinity choline transporter 1 (Homo sapiens, UniProt Q9GZV3); assay: human choline transporter blockers, potency – cell-based, 5-point CRC, membrane potential dye, dose response (AID 504840); assay type: functional
# T1 sequence (Q9GZV3 whole entry): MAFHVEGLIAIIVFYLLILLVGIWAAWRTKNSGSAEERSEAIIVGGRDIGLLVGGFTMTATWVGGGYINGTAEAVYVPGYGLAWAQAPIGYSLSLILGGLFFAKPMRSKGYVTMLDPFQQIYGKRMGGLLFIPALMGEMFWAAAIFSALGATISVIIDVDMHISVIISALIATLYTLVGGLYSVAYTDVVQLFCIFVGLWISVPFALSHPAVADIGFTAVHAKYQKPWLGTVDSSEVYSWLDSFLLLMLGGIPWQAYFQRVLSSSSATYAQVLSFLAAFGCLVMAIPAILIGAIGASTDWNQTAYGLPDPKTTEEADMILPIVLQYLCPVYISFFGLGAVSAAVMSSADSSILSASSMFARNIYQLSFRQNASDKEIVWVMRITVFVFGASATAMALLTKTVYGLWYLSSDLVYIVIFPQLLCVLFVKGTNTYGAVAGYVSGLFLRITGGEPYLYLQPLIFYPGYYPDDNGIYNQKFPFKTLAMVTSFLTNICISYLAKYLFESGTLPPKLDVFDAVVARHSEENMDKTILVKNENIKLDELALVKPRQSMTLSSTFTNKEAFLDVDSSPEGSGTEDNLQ
# [4] = target: Peroxisome proliferator-activated receptor gamma/Nuclear receptor coactivator 2 (Homo sapiens, UniProt P37231); assay: (§1) TR-FRET dose response biochemical High Throughput Screening assay for agonists of the steroid receptor coactivator 2 (SRC-2) recruitment by the peroxisome proliferator-activated receptor gamma (PPAR gamma): non-selective agonists. [Related pubchem assays: 1297, 1032 ]; assay type: functional
# [5] = target: Peroxisome proliferator-activated receptor gamma/Nuclear receptor coactivator 3 (Homo sapiens, UniProt P37231); assay: as §1, with “3 (SRC-3)” for “2 (SRC-2)”, “1301 (Confirmation screen.), 1048 (Primary screen.)]” for “1297, 1032 ]”; assay type: functional
# [6] = target: T2, Rac GTPase-activating protein 1 (Homo sapiens, UniProt Q9H0H5); assay: blockers of MgcRacGAP-driven Rac1 GTP hydrolysis – biochemical, ADP Hunter fluorescence, primary and confirmatory, confirmation (AID 624330); assay type: functional
# T2 sequence (Q9H0H5 whole entry): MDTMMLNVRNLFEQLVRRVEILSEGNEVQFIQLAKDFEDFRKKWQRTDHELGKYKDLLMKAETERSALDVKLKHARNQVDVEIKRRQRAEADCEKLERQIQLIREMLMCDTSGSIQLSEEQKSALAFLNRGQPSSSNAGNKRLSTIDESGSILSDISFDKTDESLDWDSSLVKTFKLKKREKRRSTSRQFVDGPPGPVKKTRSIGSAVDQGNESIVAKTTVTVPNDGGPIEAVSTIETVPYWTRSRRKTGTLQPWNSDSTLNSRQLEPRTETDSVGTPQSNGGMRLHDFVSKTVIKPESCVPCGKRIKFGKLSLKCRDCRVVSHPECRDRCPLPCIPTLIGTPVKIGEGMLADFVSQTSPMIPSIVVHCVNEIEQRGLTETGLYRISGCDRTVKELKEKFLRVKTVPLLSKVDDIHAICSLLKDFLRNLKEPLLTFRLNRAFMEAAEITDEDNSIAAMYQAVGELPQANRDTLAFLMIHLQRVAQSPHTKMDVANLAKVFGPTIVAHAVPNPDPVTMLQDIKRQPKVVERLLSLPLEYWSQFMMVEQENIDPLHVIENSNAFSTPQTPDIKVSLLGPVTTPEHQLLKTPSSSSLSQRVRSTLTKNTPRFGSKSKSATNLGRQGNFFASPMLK
# [7] = target: Peroxisome proliferator-activated receptor gamma/Nuclear receptor coactivator 1 (Homo sapiens, UniProt P37231); assay: as §1, with “1 (SRC-1)” for “2 (SRC-2)”, “assays (depositor defined):AID1300, AID1808, AID504735, AID631]” for “assays: 1297, 1032 ]”; assay type: protein assay
# [8] = target: Dual specificity tyrosine-phosphorylation-regulated kinase 1A (Rattus norvegicus, UniProt Q63470); assay type: biochemical, Homo sapiens
# [9] = target: T3, Intestinal-type alkaline phosphatase (Homo sapiens, UniProt P09923); assay: human intestinal alkaline phosphatase activators, dose response, biochemical, luminescence, uHTS hits (AID 463120); assay type: functional
# [10] = target: Intestinal-type alkaline phosphatase (Mus musculus, UniProt P24822); assay: PubChem AID 488874; assay type: functional
# [11] = target: T3, Intestinal-type alkaline phosphatase; assay: activation of human intestinal alkaline phosphatase – biochemical, luminescent, uHTS hits, set 2, dose response (AID 488817); assay type: functional;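 note: potency of activators that raise enzyme activity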
# [12] = target: T4, Alkaline phosphatase, tissue-nonspecific isozyme (Homo sapiens, UniProt P05186); assay: activation of tissue-nonspecific alkaline phosphatase – biochemical, TNAP isozyme, human IAP uHTS hits, selectivity assay for human IAP activator project, dose response (AID 488886); assay type: functional;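 note: potency of compounds raising TNAP activity as a selectivity check on IAP activators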
# T4 sequence (P05186 whole entry): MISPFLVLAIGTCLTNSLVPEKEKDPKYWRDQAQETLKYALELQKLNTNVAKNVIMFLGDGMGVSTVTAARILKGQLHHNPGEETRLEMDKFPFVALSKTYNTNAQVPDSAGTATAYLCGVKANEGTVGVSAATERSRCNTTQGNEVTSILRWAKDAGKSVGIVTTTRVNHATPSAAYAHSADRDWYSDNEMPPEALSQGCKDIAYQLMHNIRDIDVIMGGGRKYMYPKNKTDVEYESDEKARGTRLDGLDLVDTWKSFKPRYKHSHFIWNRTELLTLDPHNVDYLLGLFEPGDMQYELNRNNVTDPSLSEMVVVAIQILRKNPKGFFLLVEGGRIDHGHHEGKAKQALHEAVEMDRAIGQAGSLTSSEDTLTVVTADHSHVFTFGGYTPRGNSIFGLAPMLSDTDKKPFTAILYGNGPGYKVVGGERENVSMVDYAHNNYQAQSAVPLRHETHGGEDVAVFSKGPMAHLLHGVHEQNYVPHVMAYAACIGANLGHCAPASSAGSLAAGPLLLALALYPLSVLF
# [13] = target: Voltage-gated inwardly rectifying potassium channel KCNH2 (Homo sapiens, UniProt Q12809); conditions: Potency;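 note: confirmatory quantitative high-throughput screen measuring inhibition of hERG channel activity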
# Sequence of Voltage-gated inwardly rectifying potassium channel KCNH2 (Q12809 whole entry): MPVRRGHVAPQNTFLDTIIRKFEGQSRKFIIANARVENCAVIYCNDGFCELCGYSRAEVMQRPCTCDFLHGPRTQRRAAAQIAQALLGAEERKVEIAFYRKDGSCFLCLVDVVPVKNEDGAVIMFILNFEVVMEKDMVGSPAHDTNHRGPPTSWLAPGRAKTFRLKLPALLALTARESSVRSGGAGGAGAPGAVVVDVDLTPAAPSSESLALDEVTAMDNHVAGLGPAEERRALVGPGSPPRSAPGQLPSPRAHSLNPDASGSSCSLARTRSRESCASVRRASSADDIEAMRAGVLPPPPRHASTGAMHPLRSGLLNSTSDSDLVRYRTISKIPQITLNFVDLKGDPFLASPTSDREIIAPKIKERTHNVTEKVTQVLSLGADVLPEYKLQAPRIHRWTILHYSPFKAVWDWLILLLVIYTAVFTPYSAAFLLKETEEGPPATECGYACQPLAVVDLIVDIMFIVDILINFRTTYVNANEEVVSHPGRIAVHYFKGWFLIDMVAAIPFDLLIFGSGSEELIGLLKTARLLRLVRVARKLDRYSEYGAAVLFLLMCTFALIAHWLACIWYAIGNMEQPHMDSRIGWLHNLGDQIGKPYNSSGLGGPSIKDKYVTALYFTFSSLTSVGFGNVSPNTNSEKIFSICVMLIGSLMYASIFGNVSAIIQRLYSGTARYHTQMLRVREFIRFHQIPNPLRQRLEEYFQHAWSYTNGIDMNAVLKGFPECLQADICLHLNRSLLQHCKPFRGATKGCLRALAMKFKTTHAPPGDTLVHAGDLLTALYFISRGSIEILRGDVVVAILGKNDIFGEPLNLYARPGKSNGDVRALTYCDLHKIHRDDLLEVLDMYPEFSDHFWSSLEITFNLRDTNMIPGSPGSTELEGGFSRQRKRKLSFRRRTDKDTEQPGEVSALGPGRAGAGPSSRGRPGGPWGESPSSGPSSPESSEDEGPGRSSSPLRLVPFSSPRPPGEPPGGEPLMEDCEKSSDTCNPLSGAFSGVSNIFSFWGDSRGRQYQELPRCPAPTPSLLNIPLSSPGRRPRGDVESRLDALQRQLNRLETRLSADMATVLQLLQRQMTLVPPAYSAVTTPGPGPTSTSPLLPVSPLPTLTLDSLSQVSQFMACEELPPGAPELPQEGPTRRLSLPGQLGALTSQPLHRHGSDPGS
# T3 sequence (P09923 whole entry): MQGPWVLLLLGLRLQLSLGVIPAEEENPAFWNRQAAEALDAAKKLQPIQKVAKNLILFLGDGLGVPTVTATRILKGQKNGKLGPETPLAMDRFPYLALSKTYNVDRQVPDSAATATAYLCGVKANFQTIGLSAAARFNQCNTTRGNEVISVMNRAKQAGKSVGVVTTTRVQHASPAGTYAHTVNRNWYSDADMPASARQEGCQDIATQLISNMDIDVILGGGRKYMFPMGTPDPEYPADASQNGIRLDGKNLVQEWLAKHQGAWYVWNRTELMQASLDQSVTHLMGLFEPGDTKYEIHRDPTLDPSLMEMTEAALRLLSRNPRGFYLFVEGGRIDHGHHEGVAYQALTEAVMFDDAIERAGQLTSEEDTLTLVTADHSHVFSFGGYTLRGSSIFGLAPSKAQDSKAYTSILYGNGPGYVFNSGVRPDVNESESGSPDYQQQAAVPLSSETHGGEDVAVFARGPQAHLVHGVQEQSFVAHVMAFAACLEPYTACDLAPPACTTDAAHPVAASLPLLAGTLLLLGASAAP
# Sequence of Intestinal-type alkaline phosphatase (Mus musculus, UniProt P24822) (P24822 whole entry): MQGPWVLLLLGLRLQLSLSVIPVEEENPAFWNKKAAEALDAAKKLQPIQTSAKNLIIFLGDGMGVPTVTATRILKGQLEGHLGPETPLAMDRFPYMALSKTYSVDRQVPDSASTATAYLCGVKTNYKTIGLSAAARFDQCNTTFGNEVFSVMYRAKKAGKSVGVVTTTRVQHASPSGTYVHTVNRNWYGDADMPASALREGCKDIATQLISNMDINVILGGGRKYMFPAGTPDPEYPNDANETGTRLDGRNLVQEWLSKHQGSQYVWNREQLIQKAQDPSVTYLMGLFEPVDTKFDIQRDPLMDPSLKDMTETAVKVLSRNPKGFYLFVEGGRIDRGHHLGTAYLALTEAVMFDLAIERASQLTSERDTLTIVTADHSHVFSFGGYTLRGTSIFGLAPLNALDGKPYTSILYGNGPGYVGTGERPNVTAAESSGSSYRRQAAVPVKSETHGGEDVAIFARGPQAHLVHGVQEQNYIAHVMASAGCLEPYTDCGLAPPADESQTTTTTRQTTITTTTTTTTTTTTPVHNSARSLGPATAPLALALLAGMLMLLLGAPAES
# Sequence of Peroxisome proliferator-activated receptor gamma/Nuclear receptor coactivator 1 (P37231 whole entry): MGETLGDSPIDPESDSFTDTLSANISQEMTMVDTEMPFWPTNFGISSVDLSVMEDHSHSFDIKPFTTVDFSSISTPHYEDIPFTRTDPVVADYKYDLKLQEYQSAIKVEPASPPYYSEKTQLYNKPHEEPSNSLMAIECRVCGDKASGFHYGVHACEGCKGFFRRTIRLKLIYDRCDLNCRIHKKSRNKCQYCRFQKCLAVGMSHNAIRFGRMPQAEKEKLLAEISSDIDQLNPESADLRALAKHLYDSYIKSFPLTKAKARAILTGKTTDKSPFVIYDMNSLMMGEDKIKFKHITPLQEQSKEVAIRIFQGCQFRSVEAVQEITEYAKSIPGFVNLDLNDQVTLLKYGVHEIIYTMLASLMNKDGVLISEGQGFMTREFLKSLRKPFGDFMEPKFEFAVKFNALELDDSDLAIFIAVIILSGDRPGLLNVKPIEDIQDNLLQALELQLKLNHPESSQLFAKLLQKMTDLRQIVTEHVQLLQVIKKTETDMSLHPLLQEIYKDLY
# Sequence of Peroxisome proliferator-activated receptor gamma/Nuclear receptor coactivator 1 (Q15788 whole entry, further chain): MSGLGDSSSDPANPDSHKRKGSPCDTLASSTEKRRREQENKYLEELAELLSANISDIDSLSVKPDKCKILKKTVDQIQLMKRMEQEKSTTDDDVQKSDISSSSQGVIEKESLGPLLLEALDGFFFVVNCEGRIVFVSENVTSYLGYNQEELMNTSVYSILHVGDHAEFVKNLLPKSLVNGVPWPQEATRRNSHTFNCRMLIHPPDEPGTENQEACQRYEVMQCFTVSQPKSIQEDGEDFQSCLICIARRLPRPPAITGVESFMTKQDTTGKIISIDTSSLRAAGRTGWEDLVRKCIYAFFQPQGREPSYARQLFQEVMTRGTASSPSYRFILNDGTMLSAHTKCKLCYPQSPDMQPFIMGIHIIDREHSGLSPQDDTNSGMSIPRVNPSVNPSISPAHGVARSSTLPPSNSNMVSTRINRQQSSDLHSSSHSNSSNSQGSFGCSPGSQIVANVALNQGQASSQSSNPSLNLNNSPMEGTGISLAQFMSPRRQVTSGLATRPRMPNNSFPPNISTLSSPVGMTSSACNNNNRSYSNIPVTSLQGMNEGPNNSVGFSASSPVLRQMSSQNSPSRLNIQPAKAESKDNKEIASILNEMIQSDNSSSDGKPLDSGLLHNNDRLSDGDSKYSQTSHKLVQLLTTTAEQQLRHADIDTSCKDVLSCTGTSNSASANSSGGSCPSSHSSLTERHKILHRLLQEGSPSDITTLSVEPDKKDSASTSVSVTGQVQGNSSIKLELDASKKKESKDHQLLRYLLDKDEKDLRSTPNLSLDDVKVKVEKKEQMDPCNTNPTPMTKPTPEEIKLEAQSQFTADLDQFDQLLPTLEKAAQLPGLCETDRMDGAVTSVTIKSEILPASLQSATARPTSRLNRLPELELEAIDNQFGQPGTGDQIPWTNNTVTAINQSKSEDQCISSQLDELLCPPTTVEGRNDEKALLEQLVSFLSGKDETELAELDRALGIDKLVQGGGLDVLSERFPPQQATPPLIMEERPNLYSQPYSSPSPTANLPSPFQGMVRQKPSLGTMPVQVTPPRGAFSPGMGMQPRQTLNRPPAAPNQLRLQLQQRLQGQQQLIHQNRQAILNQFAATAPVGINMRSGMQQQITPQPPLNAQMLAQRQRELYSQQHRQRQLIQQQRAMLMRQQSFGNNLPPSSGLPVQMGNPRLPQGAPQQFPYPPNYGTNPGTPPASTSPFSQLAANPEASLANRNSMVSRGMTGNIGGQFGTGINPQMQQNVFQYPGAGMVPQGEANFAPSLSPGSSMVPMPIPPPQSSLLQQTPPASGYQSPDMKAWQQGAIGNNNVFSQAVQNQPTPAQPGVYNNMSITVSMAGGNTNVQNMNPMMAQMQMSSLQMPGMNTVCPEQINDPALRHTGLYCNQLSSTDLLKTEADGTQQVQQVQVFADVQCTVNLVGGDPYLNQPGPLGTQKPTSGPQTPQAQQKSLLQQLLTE
structure (smiles),measurement,setting,value
O=C(c1cccc(Br)c1)c1coc2ccc(O)cc12,AC50,[1],23.1 µM (active)
same,AC50,[2],0.913 µM (active)
CC1CCN(CCNC(=O)C2CCCN(S(=O)(=O)c3cccc4nsnc34)C2)CC1 (centres undefined),IC50,[3],15.8 µM (active)
CN(C)C(=O)N1CCN(S(=O)(=O)c2ccc3ccccc3c2)CC1,IC50,[3],12.9 µM (active)
COc1cc(-c2nc3ccccc3s2)ccc1O,EC50,[4],13 µM (not active)
same,EC50,[5],> 79.4 µM (not active)
same,IC50,[6],16.1 µM (active)
same,EC50,[7],11.7 µM (inactive)
same,AC50,[8],7.81 µM (active)
CSCCC(NS(=O)(=O)c1ccc(C)cc1)C(=O)NNC(=O)c1csc(N2CCOCC2)n1 (centres undefined),EC50,[9],9.84 µM (active)
same,IC50,[10],66.6 µM (active)
same,EC50,[11],14.1 µM (active)
same,EC50,[12],19.1 µM (active)
Cc1cc(=O)[nH]c(-n2[nH]c3c(c2=O)CCCC3)n1,EC50,[9],9.58 µM (active)
same,IC50,[10],> 100 µM (inactive)
same,EC50,[11],19.8 µM (active)
same,EC50,[12],12.2 µM (active)
Cc1cc(C(C)(C)C)c(O)c(C(C)(C)C)c1 [BUTYLATED HYDROXYTOLUENE],AC50,[13],11.2 µM (inconclusive)
c1ccc(NNc2ccccc2)cc1 [HYDRAZOBENZENE],AC50,[13],35.5 µM (inconclusive)
